For series [1] the following is noted: rats; cited from earlier work.
The nature of series [2]: Stability test for the solid dispersions (content by HPLC).

As to porphyrin iron [API], the absolute oral bioavailability in series [1] was 0.93%. Further, in series [2] (open, 25° C. 60% RH), the “Content, stability study 0 day” value amounted to 100.9%; the “Content, stability study 1 day” value is 98.0%; the “Content, stability study 3 days” value came out at 98.7%; the “Content, stability study 7 days” value was 100.9%. The “Content, stability study 35 days” value in series [2] (open, 25° C. 60% RH) stood at 98.8%. In addition, in series [2] (open, 40° C. 75% RH), the “Content, stability study 0 day” value is given as 100.9%; the “Content, stability study 1 day” value stood at 99.0%; the “Content, stability study 3 days” value is 99.8%; the “Content, stability study 7 days” value came to 100.8%. Besides, in series [2] (open, 40° C. 75% RH), the “Content, stability study 35 days” value was 100.6%. In series [2] (sealed, 25° C. 60% RH), the “Content, stability study 0 day” value is listed as 100.9%; the “Content, stability study 1 day” value is given as 99.5%; the “Content, stability study 3 days” value amounted to 102.0%; the “Content, stability study 7 days” value was 100.5%. Also, in series [2] (sealed, 25° C. 60% RH), the “Content, stability study 14 days” value was 98.9% and the “Content, stability study 35 days” value is listed as 102.2%. Moreover, in series [2] (sealed, 40° C. 75% RH), the “Content, stability study 0 day” value came out at 100.9%; the “Content, stability study 1 day” value was 99.6%; the “Content, stability study 3 days” value worked out at 102.7%; the “Content, stability study 7 days” value is listed as 100.8%. In series [2] (sealed, 40° C. 75% RH), the “Content, stability study 14 days” value was determined as 99.2% and the “Content, stability study 35 days” value came out at 102.7%.

The record behind these values is US10391103B2, “Ferroporphyrin solid dispersion and preparation method thereof” (Sinotherapeutics Inc., priority 2013, dated 2019).
